Results published in US20040067927A1, “Substituted alkyldiamines” (priority 2003, published 2004).
Square brackets hold non-standard residues; d marks the D form. Peptide text beside a SMILES is read from it. * marks the point of attachment. Sta = CC(C)C[C@H](N)[C@@H](O)CC(=O)O; Isovaleryl = CC(C)CC(=O)*

Columns and labels:
plasmepsin II = plasmepsin II (Plasmodium falciparum, UniProt P46925); assay: FRET assay for plasmepsin II; format: biochemical; conditions: pH 5, 37° C., 40 min, substrate 1 μM
Description: The fluorescence resonance energy transfer (FRET) assay for HIV, plasmepsin II, human cathepsin D and human cathepsin E.
The assay conditions were selected according, to reports in the literature. The FRET assay was performed in white polysorp plates (Fluoronunc, cat n° 437842 A). The assay buffer consisted of 50 mM Na acetate pH 5, 12,5% glycerol, 0.1% BSA+392 mM NaCl (for HIV-protease). The incubates per well were composed of:
10 μl inhibitor (in DMSO)
10 μl of the corresponding substrate in DMSO (see table A) to a final concentration of 1 μM
20 μl of enzyme to a final amount of x ng per assay tube (x=10 ng/assay tube plasmepsin II, x=100 ng/assay tube HIV-protease, x=10 ng/assay tube human cathepsin E and x=20 ng/assay tube human cathepsin D)
The reactions were initiated by addition of the enzyme. The assay was incubated at 37° C. for 30 min (for human cathepsin E), 40 min (for plasmepsin II and HIV-protease) or 120 min (for human cathepsin D). The reactions were stopped by adding 10% (v/v) of a 1 M solution of Tris-base. Product-accumulation was monitored by measuring the fluorescence at 460 nm.
Auto-fluorescence of all the test substances is determined in assay buffer in the absence of substrate and enzyme and this value was subtracted from the final signal.

P. falciparum = conditions: cited from earlier work

Chain of plasmepsin II (P46925 125-453): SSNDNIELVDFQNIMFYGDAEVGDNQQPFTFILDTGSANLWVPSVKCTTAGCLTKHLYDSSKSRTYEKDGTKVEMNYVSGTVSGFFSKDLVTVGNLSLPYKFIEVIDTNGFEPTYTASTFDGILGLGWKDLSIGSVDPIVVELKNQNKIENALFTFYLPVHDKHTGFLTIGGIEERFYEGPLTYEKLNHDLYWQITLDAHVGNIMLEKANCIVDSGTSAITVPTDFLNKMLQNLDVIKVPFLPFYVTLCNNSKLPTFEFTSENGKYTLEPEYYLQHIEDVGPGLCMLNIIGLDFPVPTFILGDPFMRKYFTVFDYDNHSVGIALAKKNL

## CCCCCc1ccc(C(=O)N(CCN(CCCC)CCCC)Cc2ccc(-c3ccccc3)cc2)cc1 [Example 23]
Plasmepsin II
  IC50: 252 nM

## CCCCCc1ccc(C(=O)N(CCN(CCCC)CCCC)Cc2ccc(-c3ccc(CC(=O)OC)cc3)cc2)cc1 [Example 60]
Plasmepsin II
  IC50: 198 nM

## CCCCCc1ccc(C(=O)N(CCN(CCCC)CCCC)Cc2ccc(-c3ccccc3Cl)cc2)cc1 [Example 56]
Plasmepsin II
  IC50: 659 nM

## CCCCCc1ccc(C(=O)N(CCCN(CCCC)CCCC)Cc2ccc(OCc3ccccc3)cc2)cc1 [Example 51]
Plasmepsin II
  IC50: 691 nM

## CCCCCc1ccc(C(=O)N(CCN(CCCC)CCCC)Cc2ccc(-c3ccccc3F)cc2)cc1 [Example 54]
Plasmepsin II
  IC50: 312 nM

## CCCCCc1ccc(C(=O)N(CCN(CCCC)CCCC)Cc2ccc(OCCCC)cc2)cc1 [Example 38]
Plasmepsin II
  IC50: 325 nM

## CCCCCc1ccc(C(=O)N(CCN(CCO)CCO)Cc2ccc(OCC)cc2)cc1 [Example 69]
Plasmepsin II
  IC50: 8230 nM

## CCCCCc1ccc(C(=O)N(CCCN(CCCC)CCCC)Cc2ccc(-c3ccccc3)cc2)cc1 [Example 52]
Plasmepsin II
  IC50: 834 nM

## CCCCCc1ccc(C(=O)N(CCN(CCCC)CCCC)Cc2ccc(-c3cccc(OC(F)(F)F)c3)cc2)cc1 [Example 58]
Plasmepsin II
  IC50: 754 nM

## CCCCCc1ccc(C(=O)N(CCN(CCCC)CCCC)Cc2ccc(OCc3ccccc3)cc2)cc1 [Example 1]
Plasmepsin II
  IC50: 115 nM

## CCCCCc1ccc(C(=O)N(CCN(CCCC)CCCC)Cc2ccc(-c3ccc(OCCO)cc3)cc2)cc1 [Example 53]
Plasmepsin II
  IC50: 125 nM

## CCCCCc1ccc(C(=O)N(CCN(CCCC)CCCC)Cc2ccc(OCc3ccccc3)c(OCc3ccccc3)c2)cc1 [Example 22]
Plasmepsin II
  IC50: 858 nM

## CC(C)CC(=O)N[C@H](C(=O)N[C@H](C(=O)N[C@@H](CC(C)C)[C@@H](O)CC(=O)N[C@@H](C)C(=O)N[C@@H](CC(C)C)[C@@H](O)CC(=O)O)C(C)C)C(C)C [Pepstatin] (Isovaleryl-VV[Sta]A[Sta]-OH)
P. falciparum
  growth of P. falciparum in red blood cells in vitro: inhibits the growth

## CCCCCc1ccc(CN(CCN(CCCC)CCCC)Cc2ccc(-c3ccc(C#N)cc3)cc2)cc1 [Example 68]
Plasmepsin II
  IC50: 714 nM

## CCCCCc1ccc(C(=O)N(CCN(CCCC)CCCC)Cc2ccc(Oc3ccccc3)cc2)cc1 [Example 21]
Plasmepsin II
  IC50: 469 nM

## CCCCCc1ccc(C(=O)N(CCN(CCCC)CCCC)Cc2ccc(-c3ccccn3)cc2)cc1 [Example 59]
Plasmepsin II
  IC50: 380 nM

## CCCCCc1ccc(C(=O)N(CCN(CCCC)CCCC)Cc2ccc(C(F)(F)F)cc2)cc1 [Example 25]
Plasmepsin II
  IC50: 596 nM

## CCCCCc1ccc(C(=O)N(CCN(CCCC)CCCC)Cc2ccc(-c3ccc4c(c3)OCO4)cc2)cc1 [Example 61]
Plasmepsin II
  IC50: 57 nM

## CCCCCc1ccc(CN(CCN(CCCC)CCCC)Cc2ccc(OCc3ccccc3)cc2)cc1 [Example 20]
Plasmepsin II
  IC50: 846 nM

## CCCCCc1ccc(C(=O)N(CCN(CCCC)CCCC)Cc2ccc(-c3cncnc3)cc2)cc1 [Example 57]
Plasmepsin II
  IC50: 351 nM
